This note sets out measurements from PMC6934184, “Selective DNA-PKcs inhibition extends the therapeutic index of localized radiotherapy and chemotherapy” (The Journal of Clinical Investigation, 2019).

In the experiment the target is T1, MAPKAPK3 (Homo sapiens, UniProt Q16644).
T1 construct: purchased Thermo Fisher Scientific (Life Technologies) SelectScreen
The experiment is described as follows: SelectScreen Z'LYTE. Format: biochemical. Put shortly: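 Percent values come from Thermo SelectScreen profiling of NU5455, combining activity and binding assays. CSF1R was run in Z'LYTE format at Km app ATP, and CAMK1 in Adapta format with ATP listed at 10.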

T1 sequence (Q16644 whole entry): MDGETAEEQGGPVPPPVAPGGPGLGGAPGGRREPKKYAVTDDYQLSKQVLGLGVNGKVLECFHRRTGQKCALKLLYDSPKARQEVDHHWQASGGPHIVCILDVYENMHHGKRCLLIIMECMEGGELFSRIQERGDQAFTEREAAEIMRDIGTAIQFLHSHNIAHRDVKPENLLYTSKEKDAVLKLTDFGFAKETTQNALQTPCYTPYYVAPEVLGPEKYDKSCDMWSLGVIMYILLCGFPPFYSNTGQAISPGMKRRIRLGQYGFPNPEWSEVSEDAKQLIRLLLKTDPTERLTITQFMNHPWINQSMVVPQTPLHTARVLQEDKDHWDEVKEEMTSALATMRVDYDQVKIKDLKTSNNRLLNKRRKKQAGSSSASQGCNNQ

Usually inhibition stands for how much of the control response was suppressed. Low values mean a response near the control, high ones a response far below the control. `CN(C(=O)CN1CCOCC1)c1ccc2sc3c(-c4cccc5c(=O)cc(N6CC7CCC(C6)O7)oc45)cccc3c2c1` [NU5455] showed an inhibition at 1 µM of 1.4%.
